{"source": "patent US20170368148A1", "about": "“USES OF A PTHrP ANALOGUE IN REDUCING FRACTURE RISK” (RADIUS HEALTH, INC., priority 2015, published 2017)", "key": {"[1]": {"test_system": "postmenopausal women with osteoporosis", "conditions": "in vivo", "protocol": "(§1) Safety evaluations performed in the ACTIVE trial included physical examinations, vital signs, 12-lead electrocardiograms, or ECGs, clinical laboratory tests and monitoring, and recording of adverse events. Specific safety assessments included pre-dose and post-dose (four hours) determination of serum calcium, determination of creatinine clearance, post-dose ECG assessments at selected visits, and assessments of postural hypotension (60 minutes post-dose) at selected clinic visits.\n(§2) The ACTIVE trial also evaluated several potential safety measures, including blood calcium levels, orthostatic hypotension, nausea, dizziness, and injection-site reactions."}, "[2]": {"test_system": "postmenopausal women with osteoporosis", "conditions": "in vivo", "remark": "listed apart in the source", "protocol": "All subjects received supplemental calcium (500-1000 mg) and vitamin D (400-800 IU) per local practice. […] Blood calcium levels were assessed 4-hours and 24-hours after drug administration. Subjects were monitored for adverse events (AEs) and local tolerance at the injection site at each visit. Clinical and laboratory safety parameters, electrocardiograms, were also measured at each study visit.\nEfficacy and safety were assessed using all randomized patients who received at least one dose of study drug. Baseline characteristics and safety parameters were summarized using descriptive statistics. […] All hypotheses were tested at the 2-sided 5% significance level."}, "[3]": {"test_system": "postmenopausal women with osteoporosis", "experiment": "ACTIVE trial: adverse events", "conditions": "18 months; abaloparatide 80 μg (n = 822), teriparatide 20 μg (n = 818)", "protocol": "as §1, §2"}, "[4]": {"test_system": "postmenopausal women with osteoporosis", "experiment": "ACTIVExtend study: fractures at month 25 (abaloparatide or placebo 18 months, then alendronate 6 months)", "assay_type": "in vivo, human", "conditions": "abaloparatide 80 μg/day or placebo 18 months"}, "[5]": {"test_system": "postmenopausal women with osteoporosis"}, "[6]": {"conditions": "during alendronate treatment, ACTIVExtend"}}, "note": "Where two headings read alike, the source gives them in different places. Marks after values point to notes of the source that are not given here."}
{"compound": "CC[C@H](C)[C@H](NC(=O)[C@H](CO)NC(=O)[C@H](CCCCN)NC(=O)CNC(=O)[C@H](CCCCN)NC(=O)[C@H](CC(=O)O)NC(=O)[C@H](Cc1cnc[nH]1)NC(=O)[C@H](CC(C)C)NC(=O)[C@H](CC(C)C)NC(=O)[C@H](CCC(N)=O)NC(=O)[C@H](Cc1cnc[nH]1)NC(=O)[C@H](CCC(=O)O)NC(=O)[C@H](CO)NC(=O)[C@@H](NC(=O)[C@H](C)N)C(C)C)C(=O)N[C@@H](CCC(N)=O)C(=O)N[C@@H](CC(=O)O)C(=O)N[C@@H](CC(C)C)C(=O)N[C@@H](CCCNC(=N)N)C(=O)N[C@@H](CCCNC(=N)N)C(=O)N[C@@H](CCCNC(=N)N)C(=O)N[C@@H](CCC(=O)O)C(=O)N[C@@H](CC(C)C)C(=O)N[C@@H](CC(C)C)C(=O)N[C@@H](CCC(=O)O)C(=O)N[C@@H](CCCCN)C(=O)N[C@@H](CC(C)C)C(=O)N[C@@H](CC(C)C)C(=O)NC(C)(C)C(=O)N[C@@H](CCCCN)C(=O)N[C@@H](CC(C)C)C(=O)N[C@@H](Cc1cnc[nH]1)C(=O)N[C@H](C(=O)N[C@@H](C)C(N)=O)[C@@H](C)O", "note": "[abaloparatide, [Glu^22,25, Leu^23,28,31, Aib^29, Lys^26,30]hPTHrP(1-34)NH2]", "values": [{"measurement": "AE: Hypercalcemia (serum albumin-corrected calcium value ≧10.7 mg/dL)", "setting": "[1]", "value": 3.41, "unit": "%^†"}, {"measurement": "Anti-abaloparatide antibody titer in positive patients", "setting": "[2]", "value": "≤ 1:20"}, {"measurement": "Patients with positive anti-abaloparatide antibody titer", "setting": "[2]", "value": 12, "unit": "%"}, {"measurement": "AE: Influenza", "setting": "[3]", "value": 6.3, "unit": "%"}]}
{"compound": "alendronate [PBO/ALN]", "values": [{"measurement": "Fracture Rate, incident clinical fractures", "setting": "[4]", "value": 7.1, "unit": "%"}, {"measurement": "Fracture Rate, incident non-vertebral fractures", "setting": "[4]", "value": 5.5, "unit": "%"}, {"measurement": "Fracture Rate, major osteoporotic fractures", "setting": "[4]", "value": 4.6, "unit": "%"}, {"measurement": "Fracture Rate, new incident vertebral fractures", "setting": "[4]", "value": 4.4, "unit": "%"}, {"measurement": "AE: Abdominal pain, upper", "setting": "[5]; [6]", "value": 2.6, "unit": "%"}, {"measurement": "AE: Arthralgia", "setting": "[5]; [6]", "value": 4.7, "unit": "%"}, {"measurement": "AE: Back pain", "setting": "[5]; [6]", "value": 2.1, "unit": "%"}, {"measurement": "AE: Bone Pain", "setting": "[5]; [6]", "value": 1.2, "unit": "%"}, {"measurement": "AE: Diarrhea", "setting": "[5]; [6]", "value": 1.4, "unit": "%"}, {"measurement": "AE: Dyspepsia", "setting": "[5]; [6]", "value": 2.2, "unit": "%"}, {"measurement": "AE: Hypercalciuria", "setting": "[5]; [6]", "value": 1.6, "unit": "%"}, {"measurement": "AE: Hypertension", "setting": "[5]; [6]", "value": 2.1, "unit": "%"}, {"measurement": "AE: Nasopharyngitis", "setting": "[5]; [6]", "value": 1.4, "unit": "%"}, {"measurement": "AE: Pain in extremity", "setting": "[5]; [6]", "value": 2.4, "unit": "%"}, {"measurement": "AE: Upper respiratory tract infection", "setting": "[5]; [6]", "value": 4.5, "unit": "%"}, {"measurement": "AE: Urinary tract infection", "setting": "[5]; [6]", "value": 1.0, "unit": "%"}, {"measurement": "AE: Influenza", "setting": "[5]; human, in vivo", "value": 1.0, "unit": "%"}]}
